Experimental data from patent US11912660B2, “S6K1 protein kinase inhibitors as cancer therapeutics” (Xavier University of Louisiana, priority 2020, dated 2024).
Read-outs that look alike come from different tables or passages of the source.

Columns and labels:
Experiment in all cases: SelectScreen kinase panel screening
Format in all cases: biochemical
HCK = HCK (Homo sapiens (Human), UniProt P08631)
Source text: (§1) The complete list of the kinases given in Table 1 and their details can be found on the ThermoFisher website for Biochemical Kinase assays (thermofisher.com/us/en/home/industrial/pharma-biopharma/drug-discovery-development/target-and-lead-identification-and-validation/kinasebiology.html).

CHEK2 (CHK2) = CHEK2 (CHK2) (Homo sapiens (Human), UniProt O96017)
Source text: as §1

PDGFRB (PDGFR beta) = PDGFRB (PDGFR beta) (Homo sapiens (Human), UniProt P09619)
Sequence of PDGFRB (PDGFR beta) (P09619 33-1106): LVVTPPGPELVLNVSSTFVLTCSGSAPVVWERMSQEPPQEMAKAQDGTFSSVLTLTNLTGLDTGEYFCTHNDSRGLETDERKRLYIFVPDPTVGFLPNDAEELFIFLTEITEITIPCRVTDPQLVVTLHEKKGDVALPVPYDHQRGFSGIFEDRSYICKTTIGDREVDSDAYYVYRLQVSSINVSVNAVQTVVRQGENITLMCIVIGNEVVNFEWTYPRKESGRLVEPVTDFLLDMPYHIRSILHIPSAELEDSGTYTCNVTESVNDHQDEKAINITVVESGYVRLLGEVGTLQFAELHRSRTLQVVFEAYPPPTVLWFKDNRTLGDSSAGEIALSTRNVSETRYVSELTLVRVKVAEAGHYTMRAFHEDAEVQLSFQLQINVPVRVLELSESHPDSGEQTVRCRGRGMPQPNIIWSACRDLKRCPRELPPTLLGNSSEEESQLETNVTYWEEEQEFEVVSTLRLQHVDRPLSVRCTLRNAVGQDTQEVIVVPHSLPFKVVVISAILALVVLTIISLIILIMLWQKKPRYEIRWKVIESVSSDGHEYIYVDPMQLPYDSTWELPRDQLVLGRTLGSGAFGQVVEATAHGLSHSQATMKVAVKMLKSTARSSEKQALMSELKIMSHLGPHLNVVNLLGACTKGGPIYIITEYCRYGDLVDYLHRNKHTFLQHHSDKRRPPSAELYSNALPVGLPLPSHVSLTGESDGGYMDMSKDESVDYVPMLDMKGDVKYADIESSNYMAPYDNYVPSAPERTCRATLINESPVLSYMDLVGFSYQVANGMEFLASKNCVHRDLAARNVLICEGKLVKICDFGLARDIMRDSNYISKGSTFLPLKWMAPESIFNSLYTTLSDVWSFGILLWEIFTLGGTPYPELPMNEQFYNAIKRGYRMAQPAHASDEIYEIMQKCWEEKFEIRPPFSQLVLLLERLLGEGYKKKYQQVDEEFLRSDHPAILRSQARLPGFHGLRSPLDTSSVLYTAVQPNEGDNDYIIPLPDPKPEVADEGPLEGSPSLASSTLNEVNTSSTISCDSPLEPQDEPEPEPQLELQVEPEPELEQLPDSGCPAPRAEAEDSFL
Source text: as §1

AURKA (Aurora A) = AURKA (Aurora A) (Homo sapiens (Human), UniProt O14965)
Source text: as §1

JAK3 = JAK3 (Homo sapiens (Human), UniProt P52333)
Source text: as §1

AURKC (Aurora C) = AURKC (Aurora C) (Homo sapiens (Human), UniProt Q9UQB9)
Source text: as §1

FGR = FGR (Homo sapiens (Human), UniProt P09769)
Source text: as §1

YES1 = YES1 (Homo sapiens (Human), UniProt P07947)
Source text: as §1

CDK5/p25 = CDK5/p25 (Homo sapiens (Human), UniProt Q00535)
Source text: as §1

AKT1 (PKB alpha) = AKT1 (PKB alpha) (Homo sapiens (Human), UniProt P31749)
Source text: as §1

MAP3K8 (COT) = MAP3K8 (COT) (Homo sapiens (Human), UniProt P41279)
Source text: as §1

JAK2 JH1 JH2 = JAK2 JH1 JH2 (Homo sapiens (Human), UniProt O60674)
Source text: as §1

AURKB (Aurora B) = AURKB (Aurora B) (Homo sapiens (Human), UniProt Q96GD4)
Source text: as §1

PDGFRA (PDGFR alpha) = PDGFRA (PDGFR alpha) (Homo sapiens (Human), UniProt P16234)
Sequence of PDGFRA (PDGFR alpha) (P16234 24-1089): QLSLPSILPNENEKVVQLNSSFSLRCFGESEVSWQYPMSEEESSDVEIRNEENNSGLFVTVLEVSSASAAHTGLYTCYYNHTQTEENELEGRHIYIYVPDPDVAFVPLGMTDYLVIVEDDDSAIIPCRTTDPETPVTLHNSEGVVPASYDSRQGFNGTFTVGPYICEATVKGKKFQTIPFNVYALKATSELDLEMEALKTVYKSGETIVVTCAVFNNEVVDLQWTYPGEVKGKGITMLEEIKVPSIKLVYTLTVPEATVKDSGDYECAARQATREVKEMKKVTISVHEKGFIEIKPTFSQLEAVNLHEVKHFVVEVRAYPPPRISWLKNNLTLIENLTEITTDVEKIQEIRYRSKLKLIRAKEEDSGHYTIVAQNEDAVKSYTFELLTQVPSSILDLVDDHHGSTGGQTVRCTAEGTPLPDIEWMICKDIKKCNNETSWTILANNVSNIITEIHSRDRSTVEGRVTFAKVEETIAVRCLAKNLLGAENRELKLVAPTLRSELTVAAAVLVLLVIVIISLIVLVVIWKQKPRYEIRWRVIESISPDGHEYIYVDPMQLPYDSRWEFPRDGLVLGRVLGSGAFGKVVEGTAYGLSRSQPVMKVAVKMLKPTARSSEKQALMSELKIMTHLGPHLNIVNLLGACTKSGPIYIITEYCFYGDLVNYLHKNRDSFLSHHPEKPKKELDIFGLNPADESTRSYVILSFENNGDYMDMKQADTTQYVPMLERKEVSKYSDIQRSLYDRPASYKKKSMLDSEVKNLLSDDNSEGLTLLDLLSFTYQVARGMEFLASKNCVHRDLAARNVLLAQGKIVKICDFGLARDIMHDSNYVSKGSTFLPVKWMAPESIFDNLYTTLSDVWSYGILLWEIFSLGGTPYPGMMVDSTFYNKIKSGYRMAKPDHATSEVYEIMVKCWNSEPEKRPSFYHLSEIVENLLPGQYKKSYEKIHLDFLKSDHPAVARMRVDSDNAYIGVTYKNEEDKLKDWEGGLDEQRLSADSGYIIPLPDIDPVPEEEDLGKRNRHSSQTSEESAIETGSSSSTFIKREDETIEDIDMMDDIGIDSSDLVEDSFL
Source text: as §1

EPHB2 = EPHB2 (Homo sapiens (Human), UniProt P29323)
Source text: as §1

IKBKE (IKK epsilon) = IKBKE (IKK epsilon) (Homo sapiens (Human), UniProt Q14164)
Source text: as §1

ROS1 = ROS1 (Homo sapiens (Human), UniProt P08922)
Source text: as §1

MST4 = MST4 (Homo sapiens (Human), UniProt Q9P289)
Source text: as §1

FYN = FYN (Homo sapiens (Human), UniProt P06241)
Source text: as §1

JAK1 = JAK1 (Homo sapiens (Human), UniProt P23458)
Source text: as §1

CSF1R (FMS) = CSF1R (FMS) (Homo sapiens (Human), UniProt P07333)
Source text: as §1

EPHB4 = EPHB4 (Homo sapiens (Human), UniProt P54760)
Source text: as §1

CDK1/cyclin B = CDK1/cyclin B (Homo sapiens (Human), UniProt P06493)
Source text: as §1

[1] = biological target: MAPK14 (p38 alpha) Direct (Homo sapiens (Human), UniProt Q16539)
Source text: as §1

CDK9/cyclin T1 = CDK9/cyclin T1 (Homo sapiens (Human), UniProt P50750)
Sequence of CDK9/cyclin T1 (P50750 whole entry): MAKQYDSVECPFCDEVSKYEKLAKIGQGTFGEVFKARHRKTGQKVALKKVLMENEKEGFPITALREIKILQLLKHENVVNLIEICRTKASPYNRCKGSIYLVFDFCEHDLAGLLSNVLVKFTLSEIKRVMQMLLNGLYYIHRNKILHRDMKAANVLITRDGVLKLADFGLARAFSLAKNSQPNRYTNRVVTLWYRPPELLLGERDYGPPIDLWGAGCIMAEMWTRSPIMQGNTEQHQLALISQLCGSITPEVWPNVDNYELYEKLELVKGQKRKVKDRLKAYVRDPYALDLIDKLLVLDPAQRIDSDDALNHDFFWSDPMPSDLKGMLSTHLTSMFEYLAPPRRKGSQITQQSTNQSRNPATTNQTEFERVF
Sequence of CDK9/cyclin T1 (O60563 whole entry partner): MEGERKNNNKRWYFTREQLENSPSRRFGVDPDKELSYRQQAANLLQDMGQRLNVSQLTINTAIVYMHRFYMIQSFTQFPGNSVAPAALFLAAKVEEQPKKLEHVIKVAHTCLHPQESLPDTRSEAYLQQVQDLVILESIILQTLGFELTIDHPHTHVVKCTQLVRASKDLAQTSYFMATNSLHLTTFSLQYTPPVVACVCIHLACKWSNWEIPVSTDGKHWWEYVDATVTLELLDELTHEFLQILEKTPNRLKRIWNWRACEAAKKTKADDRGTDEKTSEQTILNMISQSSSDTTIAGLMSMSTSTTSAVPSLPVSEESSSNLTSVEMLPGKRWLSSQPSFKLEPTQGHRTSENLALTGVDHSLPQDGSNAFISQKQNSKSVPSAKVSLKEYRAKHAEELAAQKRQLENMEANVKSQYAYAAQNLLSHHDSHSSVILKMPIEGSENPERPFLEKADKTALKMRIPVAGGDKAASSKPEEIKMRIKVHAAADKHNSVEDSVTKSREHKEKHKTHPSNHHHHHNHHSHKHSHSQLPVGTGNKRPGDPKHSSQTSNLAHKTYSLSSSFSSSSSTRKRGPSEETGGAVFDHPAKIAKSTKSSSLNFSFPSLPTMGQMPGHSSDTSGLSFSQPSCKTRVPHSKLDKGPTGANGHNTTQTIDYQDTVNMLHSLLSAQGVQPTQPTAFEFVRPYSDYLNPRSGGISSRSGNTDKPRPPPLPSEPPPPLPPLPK
Source text: as §1

ABL2 (Arg) = ABL2 (Arg) (Homo sapiens (Human), UniProt P42684)
Source text: as §1

MAP2K1 (MEK1) = MAP2K1 (MEK1) (Homo sapiens (Human), UniProt Q02750)
Sequence of MAP2K1 (MEK1) (Q02750 whole entry): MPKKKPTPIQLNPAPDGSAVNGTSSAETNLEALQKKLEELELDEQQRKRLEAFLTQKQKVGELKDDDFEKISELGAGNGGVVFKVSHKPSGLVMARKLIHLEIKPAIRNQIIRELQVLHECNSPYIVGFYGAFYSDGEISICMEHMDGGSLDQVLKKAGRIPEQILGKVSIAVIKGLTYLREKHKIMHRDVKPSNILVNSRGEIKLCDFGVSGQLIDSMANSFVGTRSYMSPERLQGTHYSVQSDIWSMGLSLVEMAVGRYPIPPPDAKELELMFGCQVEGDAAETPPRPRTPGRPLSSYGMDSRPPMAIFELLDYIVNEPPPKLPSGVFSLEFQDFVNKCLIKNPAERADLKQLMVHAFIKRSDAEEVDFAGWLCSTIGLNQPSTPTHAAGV
Source text: as §1

TBK1 = TBK1 (Homo sapiens (Human), UniProt Q9UHD2)
Source text: as §1

PLK3 = PLK3 (Homo sapiens (Human), UniProt Q9H4B4)
Source text: as §1

SGK (SGK1) = SGK (SGK1) (Homo sapiens (Human), UniProt O00141)
Source text: as §1

ROCK1 = ROCK1 (Homo sapiens (Human), UniProt Q13464)
Sequence of ROCK1 (Q13464 whole entry): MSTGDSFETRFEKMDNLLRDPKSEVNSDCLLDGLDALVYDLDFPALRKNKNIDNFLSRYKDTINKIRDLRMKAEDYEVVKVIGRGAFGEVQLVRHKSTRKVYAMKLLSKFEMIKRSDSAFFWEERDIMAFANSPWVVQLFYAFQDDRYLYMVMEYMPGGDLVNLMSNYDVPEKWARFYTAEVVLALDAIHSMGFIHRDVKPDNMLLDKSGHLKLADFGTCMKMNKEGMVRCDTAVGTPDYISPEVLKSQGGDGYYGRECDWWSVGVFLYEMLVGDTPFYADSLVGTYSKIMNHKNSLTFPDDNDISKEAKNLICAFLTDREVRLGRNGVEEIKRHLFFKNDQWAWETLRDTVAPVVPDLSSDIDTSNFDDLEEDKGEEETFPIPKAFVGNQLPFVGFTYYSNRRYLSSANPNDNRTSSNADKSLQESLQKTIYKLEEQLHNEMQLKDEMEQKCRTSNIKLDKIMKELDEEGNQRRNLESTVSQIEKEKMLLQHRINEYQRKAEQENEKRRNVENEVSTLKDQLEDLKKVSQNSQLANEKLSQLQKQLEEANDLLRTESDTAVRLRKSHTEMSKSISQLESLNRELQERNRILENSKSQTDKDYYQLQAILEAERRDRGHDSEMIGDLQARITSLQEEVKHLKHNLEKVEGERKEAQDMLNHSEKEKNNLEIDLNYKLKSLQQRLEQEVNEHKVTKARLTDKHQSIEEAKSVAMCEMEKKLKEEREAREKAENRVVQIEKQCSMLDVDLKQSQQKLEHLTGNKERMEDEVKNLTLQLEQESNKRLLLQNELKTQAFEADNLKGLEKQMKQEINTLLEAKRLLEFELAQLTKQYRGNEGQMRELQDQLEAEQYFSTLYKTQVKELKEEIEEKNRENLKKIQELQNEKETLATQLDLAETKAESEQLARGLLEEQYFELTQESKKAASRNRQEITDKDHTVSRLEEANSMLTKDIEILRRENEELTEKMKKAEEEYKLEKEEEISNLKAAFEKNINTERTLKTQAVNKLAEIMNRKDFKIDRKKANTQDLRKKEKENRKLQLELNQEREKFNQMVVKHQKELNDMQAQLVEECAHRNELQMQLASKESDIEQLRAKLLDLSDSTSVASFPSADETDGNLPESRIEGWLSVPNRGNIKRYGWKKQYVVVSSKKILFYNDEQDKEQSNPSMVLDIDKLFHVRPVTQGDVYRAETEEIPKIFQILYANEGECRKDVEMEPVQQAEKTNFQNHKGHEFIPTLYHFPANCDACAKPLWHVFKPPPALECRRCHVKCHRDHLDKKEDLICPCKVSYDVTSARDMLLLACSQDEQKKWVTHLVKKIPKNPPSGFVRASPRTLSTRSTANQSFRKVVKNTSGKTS
Source text: as §1

CSNK2A1 (CK2 alpha 1) = CSNK2A1 (CK2 alpha 1) (Homo sapiens (Human), UniProt P68400)
Source text: as §1

For `Nc1cc(N)c2c(c1)C(=O)NC2=O` [RJ1, 4,6-diaminoisoindoline-1,3-dione], the inhibition at 10 µM (HCK; read-out: % Inhibition) was 21%, the inhibition at 10 µM (HCK; read-out: % Inhibition class) was < 40% and the inhibition at 10 µM (CHEK2 (CHK2); read-out: % Inhibition) was 38%. For the same molecule, the inhibition at 10 µM (CHEK2 (CHK2); read-out: % Inhibition class) was < 40%, the inhibition at 10 µM (PDGFRB (PDGFR beta); read-out: % Inhibition) was 5% and the inhibition at 10 µM (PDGFRB (PDGFR beta); read-out: % Inhibition class) was < 40%. The inhibition at 10 µM (AURKA (Aurora A); read-out: % Inhibition) was 43%, the inhibition at 10 µM (AURKA (Aurora A); read-out: % Inhibition class) was 40 to 80% and the inhibition at 10 µM (JAK3; read-out: % Inhibition) was 28%. The inhibition at 10 µM (JAK3; read-out: % Inhibition class) was < 40%, the inhibition at 10 µM (AURKC (Aurora C); read-out: % Inhibition) was 40% and the inhibition at 10 µM (AURKC (Aurora C); read-out: % Inhibition class) was < 40%. For the same molecule, the inhibition at 10 µM (FGR; read-out: % Inhibition) was 51%, the inhibition at 10 µM (FGR; read-out: % Inhibition class) was 40 to 80% and the inhibition at 10 µM (YES1; read-out: % Inhibition) was 24%. For the same molecule, the inhibition at 10 µM (YES1; read-out: % Inhibition class) was < 40%, the inhibition at 10 µM (CDK5/p25; read-out: % Inhibition) was 27% and the inhibition at 10 µM (CDK5/p25; read-out: % Inhibition class) was < 40%. For the same molecule, the inhibition at 10 µM (AKT1 (PKB alpha); read-out: % Inhibition) was 11%, the inhibition at 10 µM (AKT1 (PKB alpha); read-out: % Inhibition class) was < 40% and the inhibition at 10 µM (MAP3K8 (COT); read-out: % Inhibition) was 29%. The inhibition at 10 µM (MAP3K8 (COT); read-out: % Inhibition class) was < 40%, the inhibition at 10 µM (JAK2 JH1 JH2; read-out: % Inhibition) was 15% and the inhibition at 10 µM (JAK2 JH1 JH2; read-out: % Inhibition class) was < 40%. The inhibition at 10 µM (AURKB (Aurora B); read-out: % Inhibition) was 63%, the inhibition at 10 µM (AURKB (Aurora B); read-out: % Inhibition class) was 40 to 80% and the inhibition at 10 µM (PDGFRA (PDGFR alpha); read-out: % Inhibition) was 13%. For the same molecule, the inhibition at 10 µM (PDGFRA (PDGFR alpha); read-out: % Inhibition class) was < 40%, the inhibition at 10 µM (EPHB2; read-out: % Inhibition) was 10% and the inhibition at 10 µM (EPHB2; read-out: % Inhibition class) was < 40%. The inhibition at 10 µM (IKBKE (IKK epsilon); read-out: % Inhibition) was 16%, the inhibition at 10 µM (IKBKE (IKK epsilon); read-out: % Inhibition class) was < 40% and the inhibition at 10 µM (ROS1; read-out: % Inhibition) was 3%. For the same molecule, the inhibition at 10 µM (ROS1; read-out: % Inhibition class) was < 40%, the inhibition at 10 µM (MST4; read-out: % Inhibition) was 52% and the inhibition at 10 µM (MST4; read-out: % Inhibition class) was 40 to 80%. For the same molecule, the inhibition at 10 µM (FYN; read-out: % Inhibition) was 17%, the inhibition at 10 µM (FYN; read-out: % Inhibition class) was < 40% and the inhibition at 10 µM (JAK1; read-out: % Inhibition) was 9%. For the same molecule, the inhibition at 10 µM (JAK1; read-out: % Inhibition class) was < 40%, the inhibition at 10 µM (CSF1R (FMS); read-out: % Inhibition) was 26% and the inhibition at 10 µM (CSF1R (FMS); read-out: % Inhibition class) was < 40%. For the same molecule, the inhibition at 10 µM (EPHB4; read-out: % Inhibition) was 9%, the inhibition at 10 µM (EPHB4; read-out: % Inhibition class) was < 40% and the inhibition at 10 µM (CDK1/cyclin B; read-out: % Inhibition) was 8%. For the same molecule, the inhibition at 10 µM (CDK1/cyclin B; read-out: % Inhibition class) was < 40%, the inhibition at 10 µM ([1]; read-out: % Inhibition) was 2% and the inhibition at 10 µM ([1]; read-out: % Inhibition class) was < 40%. For the same molecule, the “% Inhibition” value (CDK9/cyclin T1; 10 μM) was 16%, the inhibition at 10 µM (CDK9/cyclin T1; read-out: % Inhibition) was 10% and the inhibition at 10 µM (CDK9/cyclin T1; read-out: % Inhibition class) was < 40%. It also gave an inhibition at 10 µM (ABL2 (Arg); read-out: % Inhibition) of 54%, an inhibition at 10 µM (ABL2 (Arg); read-out: % Inhibition class) of 40 to 80% and an inhibition at 10 µM (MAP2K1 (MEK1); read-out: % Inhibition) of 13%. The inhibition at 10 µM (MAP2K1 (MEK1); read-out: % Inhibition class) was < 40%, the inhibition at 10 µM (TBK1; read-out: % Inhibition) was 18% and the inhibition at 10 µM (TBK1; read-out: % Inhibition class) was < 40%. For the same molecule, the inhibition at 10 µM (PLK3; read-out: % Inhibition) was 77%, the inhibition at 10 µM (PLK3; read-out: % Inhibition class) was 40 to 80% and the inhibition at 10 µM (SGK (SGK1); read-out: % Inhibition) was 50%. The inhibition at 10 µM (SGK (SGK1); read-out: % Inhibition class) was 40 to 80%, the inhibition at 10 µM (ROCK1; read-out: % Inhibition) was 21% and the inhibition at 10 µM (ROCK1; read-out: % Inhibition class) was < 40%. For the same molecule, the inhibition at 10 µM (CSNK2A1 (CK2 alpha 1); read-out: % Inhibition) was 5% and the inhibition at 10 µM (CSNK2A1 (CK2 alpha 1); read-out: % Inhibition class) was < 40%.
